# From patent publication US7754718B2 (priority 2004, dated 2010)
# Read-outs that look alike come from different tables or passages of the source.
# What was measured:
# HBV core protein = HBV core protein expression in HepG2.2.15 cells, Western blot; type: cell-based, Hepatitis B virus; conditions: 6 days
# Description: (§1) Southern blot hybridization was used to measure the effects of compounds on HBV DNA. Total DNA from cells was extracted using Dneasy Tissue kit (Qiagen Inc. Valencia, Calif.) and separated on a 0.8% agarose gel. Separated DNA was transferred to a Hybond-N+membrane (Amersham Pharmacia Biotech Inc. Piscataway, N.J.). Inhibition of viral DNA replication was assessed by comparison of the replicative HBV DNA from drug-treated versus untreated cultures using hybridization of the membrane with a [α-^32P] dCTP labeled whole HBV DNA probe followed by autoradiography. Quantitative densitometry was performed on a Molecular Dynamics Densitometer (Amersham Pharmacia Biotech Inc. Piscataway, N.J.) using ImageQuaNT image analysis software. The integrated HBV genome was used as the internal control to normalize the amount of DNA loaded. Northern blot hybridization was used to measure the effects of the compounds on HBV RNA. Total intracellular RNA was extracted from cells using Rneasy kit (Qiagen Inc. Valencia, Calif.). RNA was separated in a 1.2% formaldehyde agarose gel and transferred to a Hybond-N+ membrane (Amersham Pharmacia Biotech Inc. Piscataway, N.J.). The membrane was hybridized with the same probe mentioned above at 65° C. followed by autoradiography. GAPDH RNA level was used as an internal control to normalize the amount of RNA loaded. The decrease of HBV core protein expression was assessed by western blot. A cellular crude extract of […] cells was separated on a 12% SDS-PAGE gel and transferred onto a nitrocellulose membrane (Bio-rad Laboratories, Hercules, Calif.). Anti-HBV core antibody (DAKO Corp. Carpinteria, Calif.) and anti rabbit IgG secondary antibody (Sigma. St. Louis, Mo.) were added. Actin protein level was used as the internal control.
# Since 3.5 kb HBV transcript was decreased after drug treatment, it was anticipated that this class of compounds would also affect viral protein expression. HepG2.2.15 cells were treated with helioxanthin and 22 for 6 days. […]
# L526M/M550V (adr) HBV = experiment: Extracellular HBV DNA in lamivudine-resistant DM2 cells, real-time PCR; type: cell-based; conditions: Hepatitis B virus, 144 h, read-out: EC50 (μM) L526M/M550V (adr)
# From the text: (§2) Hep.G2.2.15 is a hepatoblastoma cell line stably transfected with a HBV genome (ayw strain) (Sells et al., 1987, Proc Natl Acad Sci USA. 84 (4):1005-1009). W10, a HepG2 cell line, was transfected with an adr HBV strain (Fu et al., 2000, Antimicrob Agents Chemother 44 (12): 3402-3407; Fu et al., 1999, Biochem Pharmacol. 57 (12): 1351-1359). These cell lines were used to assess the antiviral activity of helioxanthin and 22. Various concentrations of the drugs in minimal essential medium with Earle's salts (MEME) containing 10% fetal bovine serum (FBS) were tested in 6-day-old cultures. The drugs were left in the culture medium for 3 days, then the medium was removed and fresh medium containing the same concentration of the drugs was added. At the end of another 3-day period, the culture medium and cells were harvested to measure the HBV replication level. The Lamivudine resistant cell line DM2 (Fu et al., 2000, Antimicrob Agents Chemother 44 (12): 3402-3407) is also a hepatoblastoma cell line stably transfected with HBV genome (adr strain) which contains the L526M/M550V double mutation. The culture conditions of DM2 are the same as that of HepG.2.2.15.
# (§3) Quantitative real-time PCR was used to determine the extracellular HBV copy number in the medium of DM2 cells with and without drug treatment. […] Quantification of the copy number was determined by comparing the sample amount to a standard curve generated in each run. […]
# (§4) W10 and DM2 cells (Fu et al., 2000, Antimicrob Agents Chemother 44 (12): 3402-3407), were used to evaluate the effects of these two compounds on wt HBV (adr strain) and its lamivudine-resistant HBV. […] After a 6-day treatment, the amount of HBV DNA, which was secreted into the medium, was evaluated using real-time PCR (FIG. 3). […] The real-time PCR method was validated by comparing the results of intracellular HBV DNA levels obtained from the Southern blot hybridization analysis to the results from real-time PCR that measured HBV DNA copies in the HepG2.2.15 medium with or without treatment of lamivudine. […]
# wt (adr) HBV = experiment: Extracellular HBV DNA in W10 cells, real-time PCR; type: cell-based; conditions: Hepatitis B virus, 144 h, 6-day treatment, HBV DNA in medium by real-time PCR
# From the text: as §2, §3, §4
# [1] = tested on: HBV 3.5 kb, 2.4/2.1 kb transcripts; experiment: HBV RNA in HepG2.2.15 cells, Northern blot hybridization; type: cell-based, Hepatitis B virus; conditions: for EC50: Hepatitis B virus, 144 h, read-out: EC50 for the 3.5 kb transcript
# Description: as §1
# Since helioxanthin and its derivatives are a unique class of chemical with anti-HBV activity, the mechanism of HBV inhibition was examined by first assessing their impact on HBV mRNA. The HepG2.2.15 cells treated with these two drugs for 6 days, then a Northern blot analysis on the total cellular RNA was performed with a HBV specific [α-^32P] dCTP labeled probe. […] Lamivudine had no effect on HBV RNA level.
# [2] = HepG2.2.15 cells, 6 days, Northern blot
Compound,effect on HBV core protein expression (HBV core protein; listed as helioxanthin),EC50 (L526M/M550V (adr) HBV),EC50 (wt (adr) HBV),"effect on HBV 3.5 kb, 2.4/2.1 kb transcripts (HBV RNA level) ([1]; HepG2.2.15 cells, 6 days, Northern blot, listed as helioxanthin)","EC50 [1, 2]",effect on HBV core protein expression (HBV core protein),"effect on HBV 3.5 kb, 2.4/2.1 kb transcripts (HBV RNA level) [1]","effect on HBV 3.5 kb, 2.4/2.1 kb transcripts (HBV RNA level) [1, 2]"
"O=C1OCc2c1cc1ccc3c(c1c2-c1ccc2c(c1)OCO2)OCO3 [Compound 2, 10-Benzo[1,3]dioxol-5-yl-9H-furo[3′,4′:6,7]naphtho[1,2-d][1,3]dioxol-7-one, reference compound]",decreased in a dose-dependent manner,0.1 µM,0.4 µM,"decreased 3.5 kb, 2.4/2.1 kb HBV transcripts in a dose-dependent manner",90 nM,,,
"Nc1ccn([C@@H]2CS[C@H](CO)O2)c(=O)n1 [Compound 3TC, (−)-(2R,5S)-1-[2-(hydroxymethyl)oxathiolan-5-yl]cytosine]",,> 3 µM,0.02 ± 0.03 µM,,,no effect,no effect,
"COc1ccc(-c2c3c(cc4ccc5c(c24)OCO5)C(=O)NC3)cc1OC [Compound 22, 10-(3,4-Dimethoxy-phenyl)-8,9-dihydro-1,3-dioxa-8-aza-dicyclopenta[a,g]naphthalen-7-one]",,0.0003 µM,0.004 µM,,1000 nM,decreased in a dose-dependent manner,,"decreased 3.5 kb, 2.4/2.1 kb HBV transcripts in a dose-dependent manner"
